Reference: paper PMC3272803, “Infection by CXCR4-Tropic Human Immunodeficiency Virus Type 1 Is Inhibited by the Cationic Cell-Penetrating Peptide Derived from HIV-1 Tat” (International Journal of Peptides, 2012)
In brackets after ≈: the same amount, converted by molar mass. Read-outs that look alike come from different tables or passages of the source. No end group written: not given here.

How the values were obtained:
HIV-1 strain IIIB = format: cell-based, human immunodeficiency virus type 1; conditions: for EC50: 2 h exposure
Description: Peptide effectiveness was determined in an HIV-1 infection inhibition assay using P4-R5 MAGI indicator cells. […] The cells were then infected with HIV-1 strain IIIB (Advanced Biotechnologies, Inc., Columbia, MD; 10^7.8 TCID50/mL) at multiplicities of infection (MOI) of 0.6, 0.05, or 0.03 in the presence or absence of peptide or dextran sulfate (DS) (Sigma, St. Louis, MO). Following a 2 h incubation at 37°C, the cells were washed with PBS, provided with 200 μL of new media, and incubated for an additional 46 h. Levels of infection were measured using the Galacto-Star-β-Galactosidase Reporter Gene Assay System for Mammalian Cells (Applied Biosystems, Carlsbad, CA) as described by the manufacturer. Chemiluminescence was measured using a Glomax Luminometer plate reader (Promega, Madison, WI).

P4-R5 MAGI cells = conditions: 2 h exposure at concentrations below 1 mg/mL; MTT immediately after exposure or 24 h or 48 h after exposure; two independent assays in quadruplicate
Description: P4-R5 MAGI cells were plated at a concentration of 1.5 × 10^4 cells/well in a flat-bottom 96-well plate. The cells were then exposed to the indicated half log concentrations of peptide and incubated at 37°C for 2 h. Following exposure, the cells were washed with PBS and then assayed for cell viability immediately or at 24 h or 48 h after exposure. Viability was measured using a 3-(4,5-dimethylthiazol-2-yl)-2,5-diphenyltetrazolium bromide (MTT) assay as previously described.
Mean values and standard deviations were calculated from two independent assays in which each concentration was examined in quadruplicate.

[1] = exposure durations as long as 48 h, not conjugated to payload; cited from earlier work
HIV-1 = conditions: preliminary studies, data not shown

## N=C(N)NCCC[C@H](NC(=O)[C@H](CCCNC(=N)N)NC(=O)[C@H](CCCNC(=N)N)NC(=O)[C@H](CCCNC(=N)N)NC(=O)[C@H](CCCNC(=N)N)NC(=O)[C@H](CCCNC(=N)N)NC(=O)[C@H](CCCNC(=N)N)NC(=O)[C@H](CCCNC(=N)N)NC(=O)[C@H](CCCNC(=N)N)NC(=O)[C@@H](N)CCCNC(=N)N)C(=O)O [R-10, decaarginine]
HIV-1 strain IIIB; strain IIIB, 2 h
  EC50 (concentration that resulted in 50% reduction in infection relative to mock-treated, HIV-1-infected cells): 0.014 mg/mL (≈ 8.86 µM)

## N=C(N)NCCC[C@H](NC(=O)[C@H](CCCNC(=N)N)NC(=O)[C@H](CCCNC(=N)N)NC(=O)[C@H](CCC(N)=O)NC(=O)[C@H](CCCNC(=N)N)NC(=O)[C@H](CCCNC(=N)N)NC(=O)[C@H](CCCCN)NC(=O)[C@H](CCCCN)NC(=O)[C@H](CCCNC(=N)N)NC(=O)CN)C(=O)O [Tat peptide]
P4-R5 MAGI cells
  effect on P4-R5 MAGI cell viability: no effect
HIV-1 strain IIIB; HIV-1 IIIB, 0.05 MOI (8.8 x 10^3 infectious virions/mL), P4-R5 MAGI cells
  EC50: 140 µg/mL
HIV-1 strain IIIB; HIV-1 IIIB, 0.6 MOI, P4-R5 MAGI cells, same value as 0.094 mg/mL in molar units
  EC50: 50 µM
[1]
  concentration up to which peptide alone had no effect on cell viability: up to 100 μM

## RRKKRRRRRR [TPvar3]
HIV-1 strain IIIB; strain IIIB, 2 h
  EC50 (concentration that resulted in 50% reduction in infection relative to mock-treated, HIV-1-infected cells): 0.025 mg/mL

## dextran sulfate [reference compound]
HIV-1 strain IIIB; HIV-1 IIIB, 0.6 MOI, P4-R5 MAGI cells, 2 h exposure with virus, wash, further 46 h, beta-galactosidase chemiluminescence, two independent assays in quadruplicate
  EC50 (concentration that resulted in 50% reduction in infection relative to mock-treated, HIV-1-infected cells): 0.0007 mg/mL

## nona-arginine
HIV-1
  anti-HIV-1 activity: anti-HIV-1 activity
